Laboratory results as given in ChEMBL document CHEMBL6115048, “Uncovering α-Selectivity for Liver X Receptor Agonists for Lipotoxic Cancer Therapies” (J Med Chem, 2025).
Calls of active or inactive are those of the source. The calls are words filed in the database; no cut-off is given here.

Tests used:
[1] = biological target: T1, Estrogen receptor (Homo sapiens) (UniProt P03372); assay: Agonist activity at ERalpha (unknown origin) transfected in human HepG2 cells co-transfected with renilla reniformis luciferase reporter at 10 uM incubated for 24 hrs by dual-luciferase reporter gene assay; type: cell-based
T1 sequence (whole entry): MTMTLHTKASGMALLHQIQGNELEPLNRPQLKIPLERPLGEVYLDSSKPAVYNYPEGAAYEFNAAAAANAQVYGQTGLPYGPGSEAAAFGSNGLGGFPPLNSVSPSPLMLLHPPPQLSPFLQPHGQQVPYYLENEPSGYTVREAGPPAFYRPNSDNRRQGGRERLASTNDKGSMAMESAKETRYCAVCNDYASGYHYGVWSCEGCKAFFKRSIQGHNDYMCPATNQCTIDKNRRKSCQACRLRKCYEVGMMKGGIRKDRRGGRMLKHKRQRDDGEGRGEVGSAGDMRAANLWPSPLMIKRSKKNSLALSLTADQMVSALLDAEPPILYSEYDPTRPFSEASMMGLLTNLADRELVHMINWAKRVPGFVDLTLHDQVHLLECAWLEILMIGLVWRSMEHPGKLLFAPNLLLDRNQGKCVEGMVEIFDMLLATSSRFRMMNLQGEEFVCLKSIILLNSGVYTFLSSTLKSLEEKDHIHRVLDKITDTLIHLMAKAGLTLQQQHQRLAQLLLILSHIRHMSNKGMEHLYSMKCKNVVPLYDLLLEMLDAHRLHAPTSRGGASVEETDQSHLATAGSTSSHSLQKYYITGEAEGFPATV

[2] = test system: Hep 3B2; assay: Induction of oxidative stress in human Hep3B cells assessed as increase in SOD1 expression measured after 3 days in presence of sorafenib by Western blot analysis; type: functional, cell-based; details: time 3.0 day
[3] = test system: AML12; assay: Cytotoxicity against mouse AML12 cells assessed as reduction in cell viability at 0.01 to 100 uM measured after 5 days in presence of sorafenib by CellTiter-Glo assay; type: toxicity, cell-based; details: aml12, 120 h, dose 0.01-100 µM, time 5 day
[4] = test system: Hep 3B2; assay: Induction of endoplasmic reticulum (ER) stress in human Hep3B cells assessed as increase in GADD34 expression measured after 3 days in presence of sorafenib by Western blot analysis; type: functional, cell-based; details: time 3.0 day
[5] = test system: Hep 3B2; assay: Antiproliferative activity against human Hep3B cells assessed as reduction in cell viability measured after 5 days by Celltiter-glo assay; type: functional, cell-based; details: time 5.0 day
[6] = biological target: T2, Peroxisome proliferator-activated receptor gamma (Homo sapiens) (UniProt P37231); assay: Agonist activity at PPARgamma (unknown origin) transfected in human HepG2 cells co-transfected with renilla reniformis luciferase reporter at 10 uM incubated for 24 hrs by dual-luciferase reporter gene assay; type: cell-based
T2 sequence (whole entry): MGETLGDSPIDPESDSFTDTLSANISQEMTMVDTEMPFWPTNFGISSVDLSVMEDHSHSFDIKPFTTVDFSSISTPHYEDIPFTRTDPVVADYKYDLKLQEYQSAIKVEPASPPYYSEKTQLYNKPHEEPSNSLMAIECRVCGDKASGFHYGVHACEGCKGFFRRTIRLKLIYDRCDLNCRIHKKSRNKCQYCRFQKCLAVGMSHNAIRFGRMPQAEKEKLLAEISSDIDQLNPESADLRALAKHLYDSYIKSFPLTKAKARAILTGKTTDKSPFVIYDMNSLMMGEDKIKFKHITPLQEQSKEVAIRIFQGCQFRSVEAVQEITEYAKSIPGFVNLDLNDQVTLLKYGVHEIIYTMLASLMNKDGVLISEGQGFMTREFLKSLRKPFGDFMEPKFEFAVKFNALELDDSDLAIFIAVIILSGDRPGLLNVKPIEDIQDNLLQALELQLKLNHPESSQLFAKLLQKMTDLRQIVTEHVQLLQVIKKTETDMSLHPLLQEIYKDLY

[7] = biological target: T3, Aryl hydrocarbon receptor (Homo sapiens, UniProt P35869); assay: Agonist activity at AhR (unknown origin) transfected in human HepG2 cells co-transfected with renilla reniformis luciferase reporter at 10 uM incubated for 24 hrs by dual-luciferase reporter gene assay; type: cell-based; details: hepg2, 24 h
T3 sequence (P35869 whole entry): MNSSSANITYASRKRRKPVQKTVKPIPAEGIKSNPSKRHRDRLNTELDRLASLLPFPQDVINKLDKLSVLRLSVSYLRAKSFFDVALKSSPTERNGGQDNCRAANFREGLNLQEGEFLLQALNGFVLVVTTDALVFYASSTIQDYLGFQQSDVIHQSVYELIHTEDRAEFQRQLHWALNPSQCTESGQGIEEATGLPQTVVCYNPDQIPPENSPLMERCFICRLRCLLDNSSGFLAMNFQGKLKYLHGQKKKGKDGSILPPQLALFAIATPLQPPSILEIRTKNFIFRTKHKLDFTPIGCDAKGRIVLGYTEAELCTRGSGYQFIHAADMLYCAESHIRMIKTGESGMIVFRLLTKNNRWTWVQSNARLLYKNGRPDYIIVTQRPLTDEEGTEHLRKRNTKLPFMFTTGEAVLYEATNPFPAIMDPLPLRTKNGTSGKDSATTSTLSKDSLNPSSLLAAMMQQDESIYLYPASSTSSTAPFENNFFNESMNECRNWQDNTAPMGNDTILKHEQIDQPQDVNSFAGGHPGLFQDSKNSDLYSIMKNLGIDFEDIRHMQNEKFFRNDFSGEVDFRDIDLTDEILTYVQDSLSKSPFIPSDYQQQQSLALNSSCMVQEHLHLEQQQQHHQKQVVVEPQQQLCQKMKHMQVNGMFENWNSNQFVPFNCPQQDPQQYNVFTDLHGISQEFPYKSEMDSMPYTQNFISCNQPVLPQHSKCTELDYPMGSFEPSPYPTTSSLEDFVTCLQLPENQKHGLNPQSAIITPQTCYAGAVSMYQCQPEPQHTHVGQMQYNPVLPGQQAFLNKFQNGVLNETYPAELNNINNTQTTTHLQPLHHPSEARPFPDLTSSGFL

[8] = biological target: T4, Peroxisome proliferator-activated receptor alpha (Homo sapiens) (UniProt Q07869); assay: Agonist activity at PPARalpha (unknown origin) transfected in human HepG2 cells co-transfected with renilla reniformis luciferase reporter at 10 uM incubated for 24 hrs by dual-luciferase reporter gene assay; type: cell-based
T4 sequence (whole entry): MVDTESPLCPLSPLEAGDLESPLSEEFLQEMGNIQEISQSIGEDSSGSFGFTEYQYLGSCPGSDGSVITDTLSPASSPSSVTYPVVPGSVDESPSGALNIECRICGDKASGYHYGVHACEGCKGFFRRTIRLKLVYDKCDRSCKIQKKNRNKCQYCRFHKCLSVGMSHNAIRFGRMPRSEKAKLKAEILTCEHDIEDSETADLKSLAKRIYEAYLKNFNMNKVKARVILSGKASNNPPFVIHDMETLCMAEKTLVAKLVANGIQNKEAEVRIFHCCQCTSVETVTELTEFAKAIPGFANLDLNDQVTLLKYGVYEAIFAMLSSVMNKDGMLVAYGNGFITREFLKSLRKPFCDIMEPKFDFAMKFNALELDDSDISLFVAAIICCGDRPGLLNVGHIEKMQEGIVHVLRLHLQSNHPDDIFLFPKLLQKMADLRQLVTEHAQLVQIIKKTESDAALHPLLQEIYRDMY

Activity [1]: inactive
Activity [6]: inactive
Activity [7]: Not_active
Activity [8]: inactive
Structure (SMILES): O=C1C(Nc2ccc(N3CCCCC3)cc2)=C(c2ccccc2)C(=O)N1Cc1ccccc1
Activity [2]: Active
Activity [3]: Toxic
Activity [4]: Active
Activity [5]: inactive
